In PubChem BioAssay AID1996:
In brackets after ≈: the same amount, converted by molar mass.

Conditions: buffer; pH 7.4; 200.0 µM

Row | SMILES | solubility kinetic
1 | COc1ccc(C(=O)NCCNc2ccc([N+](=O)[O-])cn2)cc1 | 16.4 µg/mL (≈ 51.8 µM)
2 | CCOC(=O)N1CCN(C(=O)c2ccc3[nH]c(C)c(C)c3c2)CC1 | > 49.4 µg/mL
3 | O=C(Nc1nccs1)c1c(O)c2c([nH]c1=O)CCCC2 | 0.9 µg/mL (≈ 3.09 µM)
4 | O=C(c1cccnc1)N1CCN(c2ccc3ccccc3n2)CC1 | 39.3 µg/mL (≈ 123 µM)
5 | CC1CCCC(NCC(=O)Nc2ccc(C(N)=O)cc2)C1C (stereo not given) | > 45.5 µg/mL
6 | Cl.O=C(CCN1CCN(CCO)CC1)N1c2ccccc2Sc2ccc(C(F)(F)F)cc21 | 65.7 µg/mL
7 | Cc1ccc(C(=O)COC(=O)c2cnccn2)cc1C | 38.7 µg/mL (≈ 143 µM)
8 | O=C(Nc1ccc(Cl)c(C(F)(F)F)c1)c1ccncc1 | 38.7 µg/mL (≈ 129 µM)
9 | O=C(Nc1cccc([N+](=O)[O-])c1)c1ccc(N2CCCC2=O)cc1 | 1.5 µg/mL (≈ 4.61 µM)
10 | Cc1ccc(SCC(=O)Nc2cccc(C)c2)cc1 | 0.8 µg/mL (≈ 2.95 µM)
11 | COc1ccccc1CC(=O)N1CCN(CCc2ccccc2)CC1 | > 50.8 µg/mL
12 | N#CC1=C(N)Oc2c(ccc3cccnc23)C1c1ccncc1 (stereo not given) | 40.8 µg/mL (≈ 136 µM)
13 | O=C(Cc1ccccc1)Nc1cc2c(cc1Cl)OCCCO2 | 5.5 µg/mL (≈ 17.3 µM)
14 | Nc1ccc(N2CCOCC2)cc1C(F)(F)F | 33.9 µg/mL (≈ 138 µM)
15 | CC(=O)c1cccc(NC(=O)N2CCCCCC2)c1 | > 39.1 µg/mL
16 | Cc1cc(=O)[nH]c(SCc2cccc3ccccc23)n1 | 23.5 µg/mL (≈ 83.2 µM)
17 | CC(C)(C)N(Cc1ccccc1)C(=O)COC(=O)c1ccc(S(=O)(=O)N2CCOCC2)cc1 | 18.4 µg/mL (≈ 38.8 µM)
18 | CC(Oc1ccccc1)C(=O)N1CCN(c2ncccn2)CC1 (stereo not given) | > 46.9 µg/mL
19 | NC(=O)C1CCN(C(=O)c2cc3c(s2)CCCC3)CC1 | 43.7 µg/mL (≈ 149 µM)
20 | NC(=[NH2+])SCC1=CCS(=O)(=O)C1.[Br-] | 39.4 µg/mL
21 | Cc1ccccc1NC(=O)c1ccccn1 | 28.9 µg/mL (≈ 136 µM)
22 | Cc1[nH]c2ccccc2c1C(=O)CN1CCCC(C)C1 (stereo not given) | 40.5 µg/mL (≈ 150 µM)
23 | CC(=O)N1CCN(CC(=O)Nc2ccccc2C(=O)Nc2ccccc2)CC1 | > 57.1 µg/mL
24 | COc1ccc(Cl)cc1C(=O)Nc1cccnc1Cl | < 0.3 µg/mL

Row | SMILES | solubility kinetic
25 | CCn1cnc2scc(-c3ccc(OC)cc3)c2c1=O | > 43 µg/mL
26 | C=CCNC(=O)c1ccc(-c2nc3ccccc3nc2-c2ccccc2)cc1 | 11.7 µg/mL (≈ 32 µM)
27 | CNC(=S)N(CCc1c(C)[nH]c2ccccc12)Cc1cccnc1 | > 50.8 µg/mL
28 | C[C@@H]1C2CC(C/C2=N\NC(=O)c2ccncc2)C1(C)C (stereo not given in full) | > 40.7 µg/mL
29 | COC(=O)c1c(C(=O)OC)c2n(c1C)CCS2 | > 38.3 µg/mL
30 | CC(O)c1nc2ccccc2n1CCCCOc1ccccc1 (stereo not given) | 43.9 µg/mL (≈ 141 µM)
31 | CC1(C)CC(/C=C/c2ccccc2)=Nc2ccccc2N1 | 27.2 µg/mL (≈ 98.4 µM)
32 | OCC1(CO)COC(CCc2ccccc2)=N1 | > 35.3 µg/mL
33 | CCCCNC(=O)c1cc2cccc([N+](=O)[O-])c2[nH]1 | 27.3 µg/mL (≈ 104 µM)
34 | COC(=O)c1ccccc1NC(=O)CSc1nc2ncccc2[nH]1 | 8.7 µg/mL (≈ 25.4 µM)
35 | O=C(Nc1ccccc1)c1ccccc1OS(=O)(=O)c1ccccc1 | 48 µg/mL (≈ 136 µM)
36 | Cc1ccc(OCCNC(=O)c2ccc3c(c2)OCO3)cc1 | 14.4 µg/mL (≈ 48.1 µM)
37 | O=C(COC(=O)c1ccc(O)cc1O)NC1CC1 | > 37.7 µg/mL
38 | COc1cccc2[nH]c(C(=O)NCCCN3CCCC3=O)cc12 | > 47.3 µg/mL
39 | Cc1nnc(SCc2nnc(-c3cccs3)o2)n1C | > 44 µg/mL
40 | COc1cccc(C(=O)Nc2ccc(C(=O)c3ccccc3)cc2)c1 | 7.4 µg/mL (≈ 22.3 µM)
41 | Cc1csc(NC(=O)c2cc3ccccc3o2)n1 | 16 µg/mL (≈ 61.9 µM)
42 | Cc1cccc(C)c1NC(=O)COC(=O)c1cc(S(=O)(=O)Nc2ccc(Cl)cc2)ccc1O | 11.5 µg/mL (≈ 23.5 µM)
43 | CC1CCN(C(=O)CN(c2cccc(F)c2)S(C)(=O)=O)CC1 | > 49.3 µg/mL
44 | Cc1ccccc1-c1nnc(SCC(=O)NC2CCS(=O)(=O)C2)n1C (stereo not given) | > 57.1 µg/mL
45 | CCNC(=O)CC1C(=O)N(c2ccc(C)cc2)C(=O)N1CCC(C)C (stereo not given) | > 51.8 µg/mL
46 | CC(Sc1nc(N)cc(=O)[nH]1)C(=O)N1CCOCC1 (stereo not given) | > 42.6 µg/mL
47 | Nc1nc(OCc2ccccc2)c2[nH]cnc2n1 | 35.9 µg/mL (≈ 149 µM)
48 | CCOC(=O)C1Sc2ccccc2NC1=O (stereo not given) | > 35.6 µg/mL

Row | SMILES | solubility kinetic
49 | Cc1cc2nc3n(c2cc1C)CCCN3 | > 30.2 µg/mL
50 | Cc1c(-c2nc(-c3ccncc3)no2)cccc1[N+](=O)[O-] | 1.7 µg/mL (≈ 6.02 µM)
51 | COc1ccc2c(COC(=O)[C@H](C)NS(=O)(=O)c3ccccc3F)cc(=O)oc2c1 | 59.1 µg/mL (≈ 136 µM)
52 | C[C@H](NC(=O)Cc1cccc2ccccc12)C(=O)N1CCOCC1 | > 49 µg/mL
53 | O=C1NC2=C(C(=O)OC2)C(c2ccc(OC(F)(F)F)cc2)N1 (stereo not given) | > 47.1 µg/mL
54 | Cc1nc(SCC(=O)NCC2CCCO2)nc(C)c1C (stereo not given) | > 44.3 µg/mL
55 | Cc1ccc(Cl)cc1NS(=O)(=O)c1cn(C)nc1C | > 45 µg/mL
56 | COCCN(Cc1ccc(F)cc1)C(=O)c1cc2ccccc2oc1=O | > 53.3 µg/mL
57 | Cc1noc(C)c1COc1ccccc1C(=O)NC1CCC(C)CC1 (stereo not given) | > 51.4 µg/mL
58 | Cl.Clc1ccc(CN2CCNCC2)cc1 | 22.6 µg/mL
59 | CSc1cccc(NC(N)=S)c1 | 29.2 µg/mL (≈ 147 µM)
60 | Cc1ccc(Sc2ncnc3onc(C)c23)c(C)c1 | 1.9 µg/mL (≈ 7 µM)
61 | O=C(CN1CCN(Cc2ccccc2F)C1=O)NCC1CCCO1 (stereo not given) | > 50.3 µg/mL
62 | Cc1ccc(SCc2ccc(C(=O)Nc3nccs3)o2)cc1 | 2.2 µg/mL (≈ 6.66 µM)
63 | CCn1c(CNC(=O)c2ccc(F)cc2)cc2ccccc21 | 1.5 µg/mL (≈ 5.06 µM)
64 | Cc1ccc(NC(=O)COC(=O)Cn2ccc(=O)[nH]c2=O)cc1C | > 49.7 µg/mL
65 | O=C(Cc1ccc([N+](=O)[O-])cc1)Nc1ccc(Br)cn1 | 2.4 µg/mL (≈ 7.14 µM)
66 | CC(C)c1nnc(NC(=O)CCC(=O)NC2CC2)s1 | > 42.4 µg/mL
67 | CC(OC(=O)c1ccc2ccccc2n1)C(=O)c1ccccc1 (stereo not given) | > 45.8 µg/mL
68 | CCCC(=O)NC(c1ccc(C(C)C)cc1)c1ccc2cccnc2c1O (stereo not given) | < 0.4 µg/mL
69 | CCC(=NCc1ccco1)c1c(O)n(-c2ccccc2C)c(=O)[nH]c1=O | > 53 µg/mL
70 | COc1ccccc1Oc1coc2cc(OCC(N)=O)ccc2c1=O | 47.8 µg/mL (≈ 140 µM)
71 | Cc1cc(=O)oc2c(C(=O)c3ccccc3)c(OCC(N)=O)ccc12 | 5.6 µg/mL (≈ 16.6 µM)
72 | N#Cc1nccnc1N1CCN(C(=O)Nc2ccccc2)CC1 | > 46.3 µg/mL

Row | SMILES | solubility kinetic
73 | Cc1ccc(S(=O)(=O)N2CCOCC2)cc1NC(=O)CNC(C)c1ccccc1.O=C(O)C(=O)O (stereo not given) | 74.1 µg/mL
74 | COc1cccc(/C=C2\N=C(C3CCCCC3)OC2=O)c1OC | 16.4 µg/mL (≈ 52 µM)
75 | CC(Cc1c[nH]c2ccccc12)NC(=O)OCCCl (stereo not given) | > 42.1 µg/mL
76 | CS(=O)(=O)N1CCC(C(=O)NCc2ccc(Cl)cc2)CC1 | > 49.6 µg/mL
77 | CC(C)C(OC(=O)/C=C/c1ccc2c(c1)OCO2)C(=O)NC(N)=O (stereo not given) | 6.6 µg/mL (≈ 19.7 µM)
78 | Cc1c(C(=O)N2CCOCC2)oc2ccccc12 | > 36.8 µg/mL
79 | Cc1ccc(C(=O)N2CCN(c3ncnc4c(C)csc34)CC2)cc1 | 4.3 µg/mL (≈ 12.2 µM)
80 | O=C(NCc1ccccc1)c1c[nH]c2ccc(F)cc2c1=O | 9.1 µg/mL (≈ 30.7 µM)
81 | COc1ccc(CNc2ccc3c(c2)CCC3)cc1Br | 5.6 µg/mL (≈ 16.9 µM)
82 | COC(=O)c1ccc(OCC(O)CNC2CCCC2)cc1.Cl (stereo not given) | 47.7 µg/mL
83 | CCOc1ccc(C(=O)OCC(=O)N2CCCC2)cc1 | > 41.6 µg/mL
84 | CSC(=Nc1ccccc1)C(C#N)c1nc2ccccc2[nH]1 (stereo not given) | 0.3 µg/mL (≈ 0.979 µM)
85 | CC(NC(=O)c1ccccc1)C(=O)N/N=C/c1ccco1 (stereo not given) | > 42.8 µg/mL
86 | COc1ccccc1NC(=O)c1c(C)nc2ccccc2c1C(=O)O | > 50.5 µg/mL
87 | COc1cccc(Oc2nc(-c3ccccc3O)nc3ccccc23)c1 | < 0.4 µg/mL
88 | O=C(Nc1ccccc1F)c1cc(-c2ccco2)nc2ccccc12 | 0.7 µg/mL (≈ 2.11 µM)
89 | Cc1ccc(NC(=S)N2CCC(c3ccccc3)C2)c(Cl)c1 (stereo not given) | 7.1 µg/mL (≈ 21.5 µM)
90 | CS(=O)(=O)c1cccc(S(=O)(=O)N2CCCCCC2)c1 | > 47.6 µg/mL
91 | CCc1ccc(NC(=O)C(=O)NCC2CCCO2)cc1 (stereo not given) | 18.5 µg/mL (≈ 66.9 µM)
92 | COc1ccc(Cl)cc1NC(=O)NCCN1CCCCC1 | > 46.8 µg/mL
93 | O=C1COc2ccc(C(=O)COC(=O)c3ccc(F)cc3Cl)cc2N1 | 5.3 µg/mL (≈ 14.6 µM)
94 | Cc1ccccc1OCCCC(=O)NC1CCCCC1 | 3.7 µg/mL (≈ 13.4 µM)
95 | O=C(O)c1cccc(N(CCO)CCO)c1 | > 33.8 µg/mL
96 | COc1ccc(C(=O)c2sc(Nc3ccccc3)nc2N)cc1OC | 0.6 µg/mL (≈ 1.69 µM)

Row | SMILES | solubility kinetic
97 | S=C(NCc1ccco1)NC1CCCc2ccccc21 (stereo not given) | 36.4 µg/mL (≈ 127 µM)
98 | Cn1c(SCC2CCCO2)nnc1-c1cccc([N+](=O)[O-])c1 (stereo not given) | > 48.1 µg/mL
99 | CCC(C)Nc1nc(N)c([N+](=O)[O-])c(Nc2ccccc2OC)n1 (stereo not given) | 2.6 µg/mL (≈ 7.82 µM)
100 | CCc1ccc(NC(=O)c2ccccc2SC)cc1 | 2.4 µg/mL (≈ 8.84 µM)
101 | COc1cc(C(=O)NCCOc2ccccc2C)cc(OC)c1OC | 48.8 µg/mL (≈ 141 µM)
102 | Cc1cccc(NC(=O)Nc2cccnc2)c1C | > 36.2 µg/mL
103 | Cc1ccccc1C(=O)NC(=S)N(Cc1ccccc1)c1ccccn1 | > 54.2 µg/mL
104 | Cc1cc(Cl)ccc1OCCCC(=O)NCCCn1ccnc1 | > 50.4 µg/mL
105 | CCOC(=O)c1ccccc1NC(=O)CSc1nc2ccccc2c(=O)n1CCCN1CCOCC1 | 18.6 µg/mL (≈ 36.4 µM)
106 | CSc1ccccc1C(=O)N(C)Cc1ccccc1 | > 40.7 µg/mL
107 | O=C(Nc1ccc2oc(-c3ccccc3F)nc2c1)c1ccccc1F | < 0.4 µg/mL
108 | O=C(CN1C(=O)NC2NC(=O)NC21)NC1CCCCC1 (stereo not given) | > 42.2 µg/mL
109 | CC1CC1C(=O)N(C)CC(=O)Nc1ccccc1Br (stereo not given) | > 48.8 µg/mL
110 | CC(=O)c1ccc(N2CCN(C(=S)NCc3ccco3)CC2)cc1 | 45.4 µg/mL (≈ 132 µM)
111 | COc1ccc(NC(=O)c2ccc(NC(=O)CN3CCN(c4ccccc4)CC3)cc2)cc1 | 1.4 µg/mL (≈ 3.15 µM)
112 | O=C(O)CC1(CC(=O)NCc2cc(F)cc3c2OCOC3)CCCCC1 | > 54.8 µg/mL
113 | O=C1CCN(C(=O)CCCn2c(=O)oc3ccccc32)CC1 | > 45.3 µg/mL
114 | COc1cc(/C=N/O)ccc1Oc1cnccn1 | > 36.8 µg/mL
115 | COc1ccccc1N(Cc1ccccc1)S(=O)(=O)c1cccc(C(=O)N2CCCCC2)c1 | 11.3 µg/mL (≈ 24.3 µM)
116 | NS(=O)(=O)c1ccc(CCNC(=O)c2ccc3nccnc3c2)cc1 | > 53.5 µg/mL
117 | Cc1ccccc1N1CC(C(=O)Nc2ccc3c(c2)OCO3)CC1=O (stereo not given) | 43.4 µg/mL (≈ 128 µM)
118 | CCc1nnc(NC(=O)CSc2nc(C)cs2)s1 | > 45.1 µg/mL
119 | CCCC(C)NC(=O)COC(=O)c1cccc(NS(C)(=O)=O)c1 (stereo not given) | 50.7 µg/mL (≈ 148 µM)
120 | CN1C(c2ccccc2)=NO[C@]1(C)c1ccccc1 | 35.9 µg/mL (≈ 142 µM)
